The NIST ThermoML archive (doi:10.1016/j.jct.2008.01.009)

What was measured:
[1] = Molar enthalpy of transition or fusion; settings: Crystal 1; Adiabatic calorimetry
[2] = molar heat capacity at saturation pressure

C1=Cc2ccccc2CC1 [1,2-dihydronaphthalene]
Settings | Molar enthalpy of transition or fusion [kcal/mol]
[1] | 2.5198

[2]
Settings | molar heat capacity [J/K/mol]
5.476 K, Crystal 3, Vacuum adiabatic calorimetry | 0.37
6.388 K, Crystal 3, Vacuum adiabatic calorimetry | 0.64
7.291 K, Crystal 3, Vacuum adiabatic calorimetry | 0.989
8.25 K, Crystal 3, Vacuum adiabatic calorimetry | 1.48
9.249 K, Crystal 3, Vacuum adiabatic calorimetry | 2.12
10.3 K, Crystal 3, Vacuum adiabatic calorimetry | 2.94
11.47 K, Crystal 3, Vacuum adiabatic calorimetry | 3.91
12.77 K, Crystal 3, Vacuum adiabatic calorimetry | 5.18
14.21 K, Crystal 3, Vacuum adiabatic calorimetry | 6.67
15.81 K, Crystal 3, Vacuum adiabatic calorimetry | 8.431
17.59 K, Crystal 3, Vacuum adiabatic calorimetry | 10.49
19.57 K, Crystal 3, Vacuum adiabatic calorimetry | 12.77
21.76 K, Crystal 3, Vacuum adiabatic calorimetry | 15.28
24.19 K, Crystal 3, Vacuum adiabatic calorimetry | 18
26.87 K, Crystal 3, Vacuum adiabatic calorimetry | 20.93
29.83 K, Crystal 3, Vacuum adiabatic calorimetry | 23.95
33.12 K, Crystal 3, Vacuum adiabatic calorimetry | 27.11
36.82 K, Crystal 3, Vacuum adiabatic calorimetry | 30.48
40.93 K, Crystal 3, Vacuum adiabatic calorimetry | 33.95
45.51 K, Crystal 3, Vacuum adiabatic calorimetry | 37.56
50.62 K, Crystal 3, Vacuum adiabatic calorimetry | 41.31
55.37 K, Crystal 3, Vacuum adiabatic calorimetry | 44.29
56.32 K, Crystal 3, Vacuum adiabatic calorimetry | 44.86
60.82 K, Crystal 3, Vacuum adiabatic calorimetry | 47.66
66.99 K, Crystal 3, Vacuum adiabatic calorimetry | 51.14
73.79 K, Crystal 3, Vacuum adiabatic calorimetry | 54.73
81.31 K, Crystal 3, Vacuum adiabatic calorimetry | 58.53
89.62 K, Crystal 3, Vacuum adiabatic calorimetry | 62.62
92.5 K, Crystal 3, Vacuum adiabatic calorimetry | 64
98.63 K, Crystal 3, Vacuum adiabatic calorimetry | 66.92
101.72 K, Crystal 3, Vacuum adiabatic calorimetry | 68.45
108.13 K, Crystal 3, Vacuum adiabatic calorimetry | 71.57
111.45 K, Crystal 3, Vacuum adiabatic calorimetry | 73.19
116.48 K, Crystal 3, Vacuum adiabatic calorimetry | 75.72
121.2 K, Crystal 3, Vacuum adiabatic calorimetry | 78.05
122.5 K, Crystal 3, Vacuum adiabatic calorimetry | 78.89
127.59 K, Crystal 3, Vacuum adiabatic calorimetry | 81.65
129.07 K, Crystal 3, Vacuum adiabatic calorimetry | 82.45
132.84 K, Crystal 3, Vacuum adiabatic calorimetry | 84.88
138.14 K, Crystal 3, Vacuum adiabatic calorimetry | 89.05
143.36 K, Crystal 3, Vacuum adiabatic calorimetry | 92.96
148.64 K, Crystal 2 | 97.43
153.85 K, Crystal 2 | 100.66
159.03 K, Crystal 2 | 103.99
164.19 K, Crystal 2 | 106.64
169.6 K, Crystal 2 | 109.63
171.24 K, Crystal 2 | 110.54
175.29 K, Crystal 2 | 112.56
178.78 K, Crystal 2 | 114.67
180.37 K, Crystal 2 | 115.57
180.88 K, Crystal 2 | 115.84
186.07 K, Crystal 2 | 118.77
186.76 K, Crystal 2 | 119.11
187.6 K, Crystal 2 | 120.08
192.71 K, Crystal 2 | 124.28
192.99 K, Crystal 2 | 123.59
197.84 K, Crystal 1, Small (less than 1 g) adiabatic calorimetry | 128.42
199.44 K, Crystal 1, Small (less than 1 g) adiabatic calorimetry | 129.23
202.96 K, Crystal 1, Small (less than 1 g) adiabatic calorimetry | 130.85
206.23 K, Crystal 1, Small (less than 1 g) adiabatic calorimetry | 132.6
208.77 K, Crystal 1, Small (less than 1 g) adiabatic calorimetry | 134.08
213.6 K, Crystal 1, Small (less than 1 g) adiabatic calorimetry | 137.01
215.96 K, Crystal 1, Small (less than 1 g) adiabatic calorimetry | 138.43
219.37 K, Crystal 1, Small (less than 1 g) adiabatic calorimetry | 140.75
230.97 K, Crystal 1, Small (less than 1 g) adiabatic calorimetry | 148.65
238.26 K, Crystal 1, Small (less than 1 g) adiabatic calorimetry | 153.96
243.92 K, Crystal 1, Small (less than 1 g) adiabatic calorimetry | 158.36
252.96 K, Crystal 1, Small (less than 1 g) adiabatic calorimetry | 166.39
255.1 K, Crystal 1, Small (less than 1 g) adiabatic calorimetry | 168.26

[2], Liquid, Small (less than 1 g) adiabatic calorimetry
Settings | molar heat capacity [J/K/mol]
271.21 K | 199.33
272.18 K | 199.68
272.24 K | 199.7
280.33 K | 202.71
288.36 K | 205.77
291.65 K | 207.11
303.09 K | 211.59
318.19 K | 217.77
333.27 K | 224.04
348.76 K | 230.58
364.66 K | 237.34
380.18 K | 243.96
